The target of this assay is IgE-Tb / sFcεRIα-Y131A-AF488 (Homo sapiens, UniProt P01854, N146Q/N252Q). Nature of the assay: IgE-Tb / sFcεRIα-Y131A-AF488 FRET assay (protocol for examples 234 to 501). The settings on record: examples 234 to 501: compound with IgE-Tb 30 minutes before sFcεRIα-Y131A-AF488, incubated 18 hours at room temperature; read-out: Y131A FRET IC50 range. Type of assay: binding. The essentials: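 Read-out is the 520/490 nm emission ratio (337 nm excitation) after 18 h at room temperature, background subtracted, fitted four-parameter for IC50. Final reagents: 5 nM IgE-Tb, preincubated 30 min with compound (top typically 10 μM, 2% DMSO, 3-fold 10-point), plus 25 nM sFcεRIα-Y131A-AF488.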

Some results are limits rather than exact numbers.

Chain of IgE-Tb / sFcεRIα-Y131A-AF488 (P01854 whole entry N146Q/N252Q): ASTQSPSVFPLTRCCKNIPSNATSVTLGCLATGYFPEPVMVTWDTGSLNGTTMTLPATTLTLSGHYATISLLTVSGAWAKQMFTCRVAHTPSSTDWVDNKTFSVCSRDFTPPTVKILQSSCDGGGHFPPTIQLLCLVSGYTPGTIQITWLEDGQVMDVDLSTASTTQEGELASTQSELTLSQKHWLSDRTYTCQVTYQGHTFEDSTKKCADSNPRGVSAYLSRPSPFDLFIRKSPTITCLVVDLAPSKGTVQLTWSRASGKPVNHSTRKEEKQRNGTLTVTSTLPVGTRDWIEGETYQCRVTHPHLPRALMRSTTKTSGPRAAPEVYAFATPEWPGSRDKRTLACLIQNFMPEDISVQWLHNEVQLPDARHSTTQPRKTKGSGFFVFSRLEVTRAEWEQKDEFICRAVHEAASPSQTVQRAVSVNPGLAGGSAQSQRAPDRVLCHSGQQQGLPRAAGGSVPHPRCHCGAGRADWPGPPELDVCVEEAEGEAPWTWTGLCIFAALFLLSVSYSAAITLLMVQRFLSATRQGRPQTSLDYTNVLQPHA

By IC50 is commonly meant the concentration that inhibits the measured activity by half. As for `Cn1nc(C(F)F)cc1Nc1nncn1[C@H]1CCc2sc(NC(=O)[C@H]3C[C@H]3F)c(C(=O)NCC3CC3)c2C1` (single isomer, unassigned) [Example 363], the IC50 was less than 1000 nM.

Regarding `Cn1nc(C(F)F)cc1Nc1nncn1[C@H]1CCc2sc(NC(=O)[C@@H]3C[C@H]3F)c(C(=O)NCC3CC3)c2C1` (single isomer, unassigned) [Example 367], the IC50 was less than 1000 nM.

For the molecule `Cn1nc(OC(F)F)cc1Nc1nncn1[C@H]1CCc2sc(NC(=O)[C@H]3C[C@@H]3F)c(C(=O)NC[C@H]3CC3(F)F)c2C1` (single isomer, unassigned) [Example 374], the half-inhibitory concentration (IC50) is less than 1000 nM.

Take `Cn1nc(OC(F)F)cc1Nc1nncn1[C@H]1CCc2sc(NC(=O)[C@H]3C[C@@H]3F)c(C(=O)NC[C@@H]3CC3(F)F)c2C1` (single isomer, unassigned) [Example 375]: the IC50 was less than 1000 nM.

On to `Cn1nc(OC(F)F)cc1Nc1nncn1[C@H]1CCc2sc(NC(=O)[C@H]3C[C@@H]3F)c(C(=O)NC[C@H]3C[C@@H](F)C3)c2C1` (single isomer, unassigned) [Example 377], for which the 50% inhibitory concentration (IC50) is less than 1000 nM.

Turning to `Cn1nc(OC(F)F)cc1Nc1nncn1[C@H]1CCc2sc(NC(=O)[C@H]3C[C@@H]3F)c(C(=O)NC[C@H]3C[C@H](F)C3)c2C1` (single isomer, unassigned) [Example 378], the half-maximal inhibitory concentration (IC50) was less than 1000 nM.

As for `Cn1nc(OC(F)F)cc1Nc1nncn1[C@H]1CCc2sc(NC(=O)[C@H]3C[C@@H]3F)c(C(=O)N[C@H]3C[C@H](F)C3)c2C1` (single isomer, unassigned) [Example 379], the IC50 was less than 1000 nM.

Take `Cn1nc(C(F)F)cc1Nc1nncn1[C@H]1CCc2sc(NC(=O)C3CC3)c(C(=O)NC[C@H]3CC3(F)F)c2C1` (single isomer, unassigned) [Example 382]: the concentration for half-maximal inhibition (IC50) was less than 1000 nM.

As for `Cn1nc(C(F)F)cc1Nc1nncn1[C@H]1CCc2sc(NC(=O)C3CC3)c(C(=O)NC[C@@H]3CC3(F)F)c2C1` (single isomer, unassigned) [Example 383], the half-inhibitory concentration (IC50) is less than 1000 nM.

In the case of `Cn1nc(C(F)F)cc1Nc1nncn1[C@H]1CCc2sc(NC(=O)C3CC3)c(C(=O)NC[C@@H]3CC34CC4)c2C1` (single isomer, unassigned) [Example 385], the IC50 was less than 1000 nM.

Consider `Cn1nc(C(F)F)cc1Nc1nncn1[C@H]1CCc2sc(NC(=O)C3CC3)c(C(=O)NC[C@H]3CC34CC4)c2C1` (single isomer, unassigned) [Example 386], for which the IC50 is less than 1000 nM.

As for `Cn1nc(C(F)(F)F)cc1Nc1nncn1[C@H]1CCc2sc(NC(=O)[C@H]3C[C@H]3F)c(C(=O)N[C@@H]3CC34CC4)c2C1` (single isomer, unassigned) [Example 393], the half-maximal inhibitory concentration (IC50) was less than 1000 nM.

Take `Cn1nc(C(F)(F)F)cc1Nc1nncn1[C@H]1CCc2sc(NC(=O)[C@H]3C[C@H]3F)c(C(=O)N[C@H]3CC34CC4)c2C1` (single isomer, unassigned) [Example 394]: the IC50 is less than 1000 nM.

For `Cn1nc(C(F)(F)F)cc1Nc1nncn1[C@H]1CCc2sc(NC(=O)[C@H]3C[C@H]3F)c(C(=O)NC[C@H]3CC3(F)F)c2C1` (single isomer, unassigned) [Example 397], the 50% inhibitory concentration (IC50) is less than 1000 nM.

Regarding `Cn1nc(C(F)(F)F)cc1Nc1nncn1[C@H]1CCc2sc(NC(=O)[C@H]3C[C@H]3F)c(C(=O)NC[C@@H]3CC3(F)F)c2C1` (single isomer, unassigned) [Example 398], the half-maximal inhibitory concentration (IC50) is less than 1000 nM.

For the molecule `Cn1nc(C(F)F)cc1Nc1nncn1[C@H]1CCc2sc(NC(=O)[C@H]3CC34CC4)c(C(=O)NC[C@@H]3CC3(F)F)c2C1` (single isomer, unassigned) [Example 409], the IC50 is less than 1000 nM.

`Cn1nc(C(F)F)cc1Nc1nncn1[C@H]1CCc2sc(NC(=O)[C@H]3CC34CC4)c(C(=O)NC[C@H]3CC3(F)F)c2C1` (single isomer, unassigned) [Example 410]: the IC50 was less than 1000 nM.

Regarding `CCOC(=O)c1c(NC(=O)[C@H]2CC23CC3)sc2c1C[C@@H](n1cnnc1Nc1cc(C(F)F)nn1C)CC2` (single isomer, unassigned) [Example 417], the IC50 is less than 1000 nM.

`C[C@H]1c2c(sc(NC(=O)C3CC3)c2C(=O)NCC2CC2)CC[C@@H]1n1cnnc1Nc1cc(C(F)(F)F)nn1C` (single isomer, unassigned) [Example 422, (4R*,5R*)-2-(cyclopropanecarbonylamino)-N-(cyclopropylmethyl)-4-methyl-5-[3-[[2-methyl-5-(trifluoromethyl)pyrazol-3-yl]amino]-1,2,4-triazol-4-yl]-4,5,6,7-tetrahydrobenzothiophene-3-carboxamide]: the IC50 is less than 1000 nM.

As to `Cn1nc(OC(F)F)cc1Nc1nncn1[C@H]1CCc2sc(NC(=O)C3CC3)c(C(=O)NC[C@H]3CC3(F)F)c2C1` (single isomer, unassigned) [Example 459], the 50% inhibitory concentration (IC50) was less than 1000 nM.

As to `Cn1nc(OC(F)F)cc1Nc1nncn1[C@H]1CCc2sc(NC(=O)C3CC3)c(C(=O)NC[C@@H]3CC3(F)F)c2C1` (single isomer, unassigned) [Example 460], the half-maximal inhibitory concentration (IC50) was less than 1000 nM.

As for `COc1cc(Nc2nncn2[C@H]2CCc3sc(NC(=O)[C@H]4C[C@@H]4C)c(C(=O)NC[C@H]4CC4(F)F)c3C2)n(C)n1` (single isomer, unassigned) [Example 463], the IC50 was less than 1000 nM.

With `COc1cc(Nc2nncn2[C@H]2CCc3sc(NC(=O)[C@H]4C[C@@H]4C)c(C(=O)NC[C@@H]4CC4(F)F)c3C2)n(C)n1` (single isomer, unassigned) [Example 464], the IC50 is less than 1000 nM.

Regarding `Cn1nc(C(F)F)cc1Nc1nncn1[C@H]1CCc2sc(NC(=O)[C@H]3C[C@H](F)C3)c(C(=O)N[C@@H]3CC34CC4)c2C1` (single isomer, unassigned) [Example 469], the IC50 was less than 1000 nM.

`Cn1nc(C(F)F)cc1Nc1nncn1[C@H]1CCc2sc(NC(=O)[C@H]3C[C@H](F)C3)c(C(=O)N[C@H]3CC34CC4)c2C1` (single isomer, unassigned) [Example 470]: the IC50 is less than 1000 nM.

For the molecule `Cn1nc(C(F)F)cc1Nc1nncn1[C@H]1CCc2sc(NC(=O)[C@H]3C[C@H](F)C3)c(C(=O)NC[C@H]3C[C@H](F)C3)c2C1` (single isomer, unassigned) [Example 474], the half-inhibitory concentration (IC50) is less than 1000 nM.

For the molecule `Cn1nc(C(F)F)cc1Nc1nncn1[C@H]1CCc2sc(NC(=O)[C@H]3C[C@@H](F)C3)c(C(=O)NC[C@H]3C[C@H](F)C3)c2C1` (single isomer, unassigned) [Example 475], the 50% inhibitory concentration (IC50) is less than 1000 nM.

Regarding `Cn1nc(C(F)F)cc1Nc1nncn1[C@H]1CCc2sc(NC(=O)[C@H]3C[C@H](F)C3)c(C(=O)N[C@H]3C[C@H](F)C3)c2C1` (single isomer, unassigned) [Example 476], the IC50 was less than 1000 nM.

On to `Cn1nc(C(F)F)cc1Nc1nncn1[C@H]1CCc2sc(NC(=O)[C@H]3C[C@@H](F)C3)c(C(=O)N[C@H]3C[C@H](F)C3)c2C1` (single isomer, unassigned) [Example 477], for which the IC50 was less than 1000 nM.

Consider `Cn1nc(OC(F)F)cc1Nc1nncn1[C@H]1CCc2sc(NC(=O)[C@H]3C[C@H](F)C3)c(C(=O)N[C@@H]3CC34CC4)c2C1` (single isomer, unassigned) [Example 484], for which the IC50 is less than 1000 nM.

With `Cn1nc(OC(F)F)cc1Nc1nncn1[C@H]1CCc2sc(NC(=O)[C@H]3C[C@H](F)C3)c(C(=O)N[C@H]3CC34CC4)c2C1` (single isomer, unassigned) [Example 485], the half-maximal inhibitory concentration (IC50) was less than 1000 nM.

On to `Cn1nc(OC(F)F)cc1Nc1nncn1[C@H]1CCc2sc(NC(=O)[C@H]3C[C@H](F)C3)c(C(=O)NC[C@H]3CC3(F)F)c2C1` (single isomer, unassigned) [Example 488], for which the concentration for half-maximal inhibition (IC50) is less than 1000 nM.

Take `Cn1nc(C(F)F)cc1Nc1nncn1[C@H]1CCc2sc(NC(=O)C3CC3)c(C(=O)N[C@H]3CC34CC4)c2C1` (single isomer, unassigned) [Example 495]: the IC50 is less than 1000 nM.

On to `Cn1nc(C(F)(F)F)cc1Nc1nncn1C1COc2sc(NC(=O)C3CC3)c(C(=O)NCC3CC3)c2C1` (single isomer, unassigned) [Example 501, (3R*)-6-(cyclopropanecarbonylamino)-N-(cyclopropylmethyl)-3-[3-[[2-methyl-5-(trifluoromethyl)pyrazol-3-yl]amino]-1,2,4-triazol-4-yl]-3,4-dihydro-2H-thieno[2,3-b]pyran-5-carboxamide (* or S)], for which the 50% inhibitory concentration (IC50) is less than 1000 nM.

As for `Cc1ccc(N2CC[C@H](Nc3nncn3[C@H]3CCc4sc(NC(=O)C5CC5)c(C(=O)NCC5CC5)c4C3)C2)nn1` [Example 240, (5S)-2-cyclopropaneamido-N-(cyclopropylmethyl)-5-(3-{[(35)-1-(6-methylpyridazin-3-yl)pyrrolidin-3-yl]amino}-4H-1,2,4-triazol-4-yl)-4,5,6,7-tetrahydro-1-benzothiophene-3-carboxamide], the concentration for half-maximal inhibition (IC50) was less than 1000 nM.

As to `O=C(NCC1CC1)c1c(NC(=O)C2CC2)sc2c1C[C@@H](n1cnnc1N[C@H]1CCN(c3cnccn3)C1)CC2` [Example 241, (5S)-2-(cyclopropanecarbonylamino)-N-(cyclopropylmethyl)-5-[3-[[(3S)-1-pyrazin-2-ylpyrrolidin-3-yl]amino]-1,2,4-triazol-4-yl]-4,5,6,7-tetrahydrobenzothiophene-3-carboxamide], the IC50 is less than 1000 nM.

Take `O=C1NCc2c(Nc3nncn3[C@H]3CCc4sc(NC(=O)C5CC5)c(C(=O)NCC5CC5)c4C3)cccc21` [Example 244, (5S)-2-cyclopropaneamido-N-(cyclopropylmethyl)-5-{3-[(1-oxo-2,3-dihydro-1H-isoindol-4-yl)amino]-4H-1,2,4-triazol-4-yl}-4,5,6,7-tetrahydro-1-benzothiophene-3-carboxamide]: the IC50 was less than 1000 nM.
